Among the data in publication PMC6204718, “GCDB: a glaucomatous chemogenomics database for in silico drug discovery” (Database: The Journal of Biological Databases and Curation, 2018) are IC50 and LE value values, retold here.

The target of assay [1] is T1, human A3AR (Homo sapiens, UniProt P0DMS8).
T1 construct: host or cells: CHO-K1 (CHO-ADORA3)
T1 sequence (P0DMS8 1-318): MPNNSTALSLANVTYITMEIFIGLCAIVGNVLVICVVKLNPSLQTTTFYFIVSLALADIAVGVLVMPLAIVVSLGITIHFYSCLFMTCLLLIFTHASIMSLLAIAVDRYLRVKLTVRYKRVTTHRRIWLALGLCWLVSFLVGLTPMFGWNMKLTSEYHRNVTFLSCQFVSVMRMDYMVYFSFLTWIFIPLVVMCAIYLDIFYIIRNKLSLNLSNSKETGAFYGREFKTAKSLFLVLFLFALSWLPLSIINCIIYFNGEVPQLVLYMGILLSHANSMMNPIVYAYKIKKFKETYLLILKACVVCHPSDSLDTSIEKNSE
As to the kind of experiment: A3AR cell-based functional assay (A3AR-mediated cAMP production, CHO-ADORA3 cells). As to conditions: for IC50: target A3AR, cAMP level of ADORA3-CHO cells elicited by NECA. Here is the method: (§1) Pharmaron (Beijing) was commissioned to perform in vitro inhibition screening of hGR and A3AR.
The four test compounds were evaluated as A3AR antagonists by A3AR-mediated cAMP production in cell-based functional assays. CHO-ADORA3 cells in which the A3AR was transfected in engineered CHO-K1 cells (PerkinElmer) to express the human A3AR were employed. The cells were collected by centrifugation and resuspended with Hank’s Buffered Saline Solution, 5 mM 4-(2-hydroxyethyl)-1-piperazineethanesulfonic acid (HEPES), 0.1% bovine serum albumin (BSA) stabilizer (pH 7.4) and 10 μM Rolipram. 2000 cells per well were added to 384 wells solid white plate. Test compounds were prepared with DMSO in 3-fold serial dilutions of 11 concentrations and dispensed to assay plates. Each compound was tested within the range of 1.69 × 10^-3–100 μM. The serial dilutions of adenosine-5′-N-ethyluronamide (NECA, 10 nl/well) was transferred to 384 wells and incubated at room temperature for 30 min. A LANCE cAMP 384 kit (Perkin Elmer, USA) was used to measure the intracellular cAMP levels. Forskolin (1 μM) was used to stimulate adenylyl cyclase activity and induce cAMP production. NECA and VUF-5574 were used as reference compounds.
In general terms: Cyclic AMP is a second messenger, typically raised through Gs and lowered through Gi signalling.

The target of assay [2] is T2, human glucocorticoid receptor (hGR) (Homo sapiens, UniProt P04150).
T2 construct: expressed in transfected cells; host or cells: HEK293T
T2 sequence (P04150 524-758 limits assumed): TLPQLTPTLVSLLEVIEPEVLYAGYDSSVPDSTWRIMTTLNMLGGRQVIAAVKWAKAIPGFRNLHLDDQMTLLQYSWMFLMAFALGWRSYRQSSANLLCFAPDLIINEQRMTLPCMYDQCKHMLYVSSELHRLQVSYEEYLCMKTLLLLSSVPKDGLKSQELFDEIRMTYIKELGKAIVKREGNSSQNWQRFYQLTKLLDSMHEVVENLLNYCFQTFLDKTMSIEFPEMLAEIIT
As to the kind of experiment: hGR reporter gene assay (GR-GAL4 chimeric receptor, antagonist mode). The class given is cell-based.
Source text: as §1
The coding sequence of hGR ligand-binding domain was inserted into the pBIND expression vector (Promega, E1581) to express GR-GAL4 binding domain chimeric receptors. The expression vector and reporter vector were co-transfected into HEK293T host cells. The principle of the assay is that once the agonist binds to the corresponding GR-GAL4 chimeric receptor, the reporter gene is activated after binding of the chimeric receptor to the GAL4 binding sites. When the antagonist and agonist are in the system, the antagonist will compete with the agonist for binding to the GR-GAL4 chimeric receptor, inhibiting the reporter gene. Cyproterone was used as a positive control. All six test compounds were prepared in dimethyl sulfoxide (DMSO) at 10 mM and further diluted. Each compound was added to wells at final concentrations of 100 μM, 50 μM, 16.67 μM, 5.56 μM, 1.85 μM, 0.62 μM, 0.21 μM, 0.07 μM, 0.02 μM, 0.008 μM and 0.003 μM.
Background: A reporter such as luciferase makes a cellular process visible.

Where [3] appears, read: read-out: IC50 (half-maximal inhibitory concentration).
The mark [4] stands for this setting: target GR, GR-GAL4 reporter gene assay in HEK293T cells, read-out: IC50 (half-maximal inhibitory concentration).

Like-named read-outs stand apart in the source and are kept apart here.

As to `CC(=O)Nc1ccc(S(=O)(=O)Nc2cc(C(F)(F)F)cc(C(F)(F)F)c2)cc1` [A3-1], the IC50 in assay [1] (setting [3]) was above 10 µM.

`NC(=O)c1nnc2cc(-c3ccccc3)nn2c1-c1ccccc1Cl` [A3-2]: the IC50 in assay [1] (setting [3]) is above 10 µM.

Take `O/N=C/c1cn(-c2ccccc2)nc1-c1ccccc1` [A3-3]: in assay [1] (ligand efficiency based on IC50, 20 heavy atoms), the LE value is listed as 0.36 kcal/mol. Besides, the IC50 in assay [1] (setting [3]) is 6.15 µM.

Consider `CC1(O)CCC2C3CCC4=CC(=O)CCC4C3CCC21C` (centres unmarked) [A3-4], for which the IC50 in assay [1] (IC50 (half-maximal inhibitory concentration)) is above 10 µM.

With `CC(=O)OC1CCC2(C)C(=CCC3C2CCC2(C)C(OC(=O)c4ccccc4)CCC32)C1` (centres unmarked) [GR-1], in assay [2], the IC50 turned out to be 28.4 µM.

As to `C#CC1(O)CCC2C3CCc4cc(Oc5ccc([N+](=O)[O-])cc5)ccc4C3CCC21C` (centres unmarked) [GR-2], the IC50 in assay [2] (setting [4]) is 2.92 µM.

As for `CC(=O)C1(O)CCC2C3CCC4(C)CC(=O)CCC4(C)C3C(=O)CC21C` (centres unmarked) [GR-3], the IC50 in assay [2] (setting [4]) was determined as 27 µM.

As for `Cc1nnc(SCC(=O)Nc2ccc(S(N)(=O)=O)cc2)c2nn(-c3ccccc3)c(C)c12` [GR-4], in assay [2] (setting [4]), the IC50 was determined as 23.5 µM.

Regarding `O=S(=O)(Nc1cccc(-c2nc3ccccc3s2)c1)c1ccc(F)c(Cl)c1` [GR-5], in assay [2] (setting [4]), the IC50 was 18 µM.

Consider `CC(=O)OCC(=O)C1(OC(C)=O)CCC2C3CCC4=CC(=O)C=CC4(C)C3C(=O)CC21C` (centres unmarked) [GR-6], for which, in assay [2] (setting [4]), the IC50 came out at 8.6 µM.
